The pEC50 is −log10 of the EC50, conventionally taken in molar units.

Compound in this assay: Nc1ncnc2c1ncn2[C@@H]1O[C@H](COP(=O)(O)OP(=O)(O)OP(=O)(O)O)[C@@H](O)[C@H]1O [adenosine triphosphate]
Put plainly: pEC50 of ATP-induced change in protein thermal stability (2D-TPP). A digest of the protocol:
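Each of three independent experiments used Jurkat crude lysate given five concentrations including vehicle (10 min, room temperature), followed by 3 min at one of 12 temperatures from 42 to 63.9 °C and NP40 with benzonase (60 min, 4 °C). TMT LC-MS/MS quantified soluble protein after ultracentrifugation, expressed as fold changes against vehicle at each temperature with median normalisation. For pEC50, dose-response curves were fitted per replicate over adjacent temperature pairs, and hits were called through permutation-based false discovery rate control.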
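Note: lysate dosed with Na-ATP at 0 0.005 0.05 0.5 and 2 mM.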

Sequence of UniProt Q13148 (Q13148 whole entry): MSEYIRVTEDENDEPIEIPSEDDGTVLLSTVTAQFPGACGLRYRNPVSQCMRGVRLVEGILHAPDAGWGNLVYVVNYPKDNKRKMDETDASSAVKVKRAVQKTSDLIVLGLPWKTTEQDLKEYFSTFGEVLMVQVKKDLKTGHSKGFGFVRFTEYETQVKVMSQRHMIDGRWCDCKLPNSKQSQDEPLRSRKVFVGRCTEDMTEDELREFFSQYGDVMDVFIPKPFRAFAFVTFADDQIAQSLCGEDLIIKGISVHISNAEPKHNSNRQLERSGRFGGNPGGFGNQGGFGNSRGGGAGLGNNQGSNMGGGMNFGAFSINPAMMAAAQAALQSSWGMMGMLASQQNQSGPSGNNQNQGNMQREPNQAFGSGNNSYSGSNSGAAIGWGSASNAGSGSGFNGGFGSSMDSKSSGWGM
Sequence of UniProt Q13596 (Q13596 whole entry): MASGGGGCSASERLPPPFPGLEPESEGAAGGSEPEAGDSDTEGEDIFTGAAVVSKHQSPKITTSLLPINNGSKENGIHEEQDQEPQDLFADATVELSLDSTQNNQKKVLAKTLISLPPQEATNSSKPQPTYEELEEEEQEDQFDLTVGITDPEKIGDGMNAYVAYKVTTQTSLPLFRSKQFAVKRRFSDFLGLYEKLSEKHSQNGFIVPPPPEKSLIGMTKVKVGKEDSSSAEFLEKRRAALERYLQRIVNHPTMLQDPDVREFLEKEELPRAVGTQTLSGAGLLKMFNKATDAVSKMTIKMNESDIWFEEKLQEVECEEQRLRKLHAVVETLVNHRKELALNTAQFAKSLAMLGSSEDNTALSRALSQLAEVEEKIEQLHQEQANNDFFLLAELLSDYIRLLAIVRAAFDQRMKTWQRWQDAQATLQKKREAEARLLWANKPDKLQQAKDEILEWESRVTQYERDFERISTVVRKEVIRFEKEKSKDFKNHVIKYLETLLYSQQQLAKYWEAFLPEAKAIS
Sequence of UniProt Q8NB90 (Q8NB90 whole entry): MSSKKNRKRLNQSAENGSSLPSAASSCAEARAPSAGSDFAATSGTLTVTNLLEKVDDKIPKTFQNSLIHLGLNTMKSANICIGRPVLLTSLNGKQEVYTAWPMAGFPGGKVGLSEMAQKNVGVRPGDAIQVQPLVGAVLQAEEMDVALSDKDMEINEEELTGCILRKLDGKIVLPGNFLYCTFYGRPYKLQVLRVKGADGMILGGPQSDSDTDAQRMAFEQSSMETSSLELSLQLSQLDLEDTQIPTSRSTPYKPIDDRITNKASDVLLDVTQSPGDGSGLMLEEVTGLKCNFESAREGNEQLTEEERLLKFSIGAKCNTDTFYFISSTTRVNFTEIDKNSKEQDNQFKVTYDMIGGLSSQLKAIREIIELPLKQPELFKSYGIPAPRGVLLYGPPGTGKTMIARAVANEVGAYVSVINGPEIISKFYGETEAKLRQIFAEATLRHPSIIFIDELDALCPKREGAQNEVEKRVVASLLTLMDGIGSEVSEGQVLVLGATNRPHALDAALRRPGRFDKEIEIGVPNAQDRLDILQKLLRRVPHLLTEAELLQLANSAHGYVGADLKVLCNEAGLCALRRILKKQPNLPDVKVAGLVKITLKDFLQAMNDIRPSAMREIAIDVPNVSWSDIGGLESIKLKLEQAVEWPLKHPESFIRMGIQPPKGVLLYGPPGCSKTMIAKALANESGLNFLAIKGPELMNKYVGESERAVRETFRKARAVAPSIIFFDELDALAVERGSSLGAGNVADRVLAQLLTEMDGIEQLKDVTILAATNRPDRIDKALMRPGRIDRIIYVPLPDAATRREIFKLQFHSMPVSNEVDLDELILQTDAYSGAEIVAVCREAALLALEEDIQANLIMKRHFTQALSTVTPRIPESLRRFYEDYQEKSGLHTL
Sequence of UniProt Q15393 (Q15393 whole entry): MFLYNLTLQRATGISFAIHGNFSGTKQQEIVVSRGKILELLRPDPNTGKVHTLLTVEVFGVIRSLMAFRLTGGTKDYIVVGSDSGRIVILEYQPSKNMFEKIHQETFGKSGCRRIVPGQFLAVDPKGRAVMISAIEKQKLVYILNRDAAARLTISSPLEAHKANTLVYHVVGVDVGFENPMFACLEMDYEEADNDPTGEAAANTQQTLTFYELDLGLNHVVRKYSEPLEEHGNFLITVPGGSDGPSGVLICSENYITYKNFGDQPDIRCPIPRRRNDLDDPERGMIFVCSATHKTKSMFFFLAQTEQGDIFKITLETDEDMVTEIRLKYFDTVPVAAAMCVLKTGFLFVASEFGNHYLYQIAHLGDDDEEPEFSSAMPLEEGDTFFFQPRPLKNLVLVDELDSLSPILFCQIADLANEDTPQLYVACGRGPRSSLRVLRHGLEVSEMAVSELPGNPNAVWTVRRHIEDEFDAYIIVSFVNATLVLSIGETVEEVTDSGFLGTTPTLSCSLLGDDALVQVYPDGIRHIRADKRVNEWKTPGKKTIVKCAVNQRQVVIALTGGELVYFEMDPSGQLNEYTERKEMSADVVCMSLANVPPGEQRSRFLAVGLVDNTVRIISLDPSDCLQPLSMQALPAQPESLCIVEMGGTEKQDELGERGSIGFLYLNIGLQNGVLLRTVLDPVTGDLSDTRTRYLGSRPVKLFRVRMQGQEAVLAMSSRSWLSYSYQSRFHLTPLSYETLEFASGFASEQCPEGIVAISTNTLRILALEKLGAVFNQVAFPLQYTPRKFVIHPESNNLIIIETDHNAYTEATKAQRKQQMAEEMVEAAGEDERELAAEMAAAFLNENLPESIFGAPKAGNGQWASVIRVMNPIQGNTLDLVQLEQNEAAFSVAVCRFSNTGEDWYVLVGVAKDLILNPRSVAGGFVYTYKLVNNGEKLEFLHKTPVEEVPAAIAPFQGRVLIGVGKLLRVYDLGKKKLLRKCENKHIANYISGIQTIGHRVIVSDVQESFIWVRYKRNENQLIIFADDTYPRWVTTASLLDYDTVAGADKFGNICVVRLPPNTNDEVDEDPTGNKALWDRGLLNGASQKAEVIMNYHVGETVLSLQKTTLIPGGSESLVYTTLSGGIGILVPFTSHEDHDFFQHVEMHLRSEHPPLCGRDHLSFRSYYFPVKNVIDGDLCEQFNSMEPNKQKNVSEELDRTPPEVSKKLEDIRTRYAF
Sequence of UniProt Q9UQE7 (Q9UQE7 whole entry): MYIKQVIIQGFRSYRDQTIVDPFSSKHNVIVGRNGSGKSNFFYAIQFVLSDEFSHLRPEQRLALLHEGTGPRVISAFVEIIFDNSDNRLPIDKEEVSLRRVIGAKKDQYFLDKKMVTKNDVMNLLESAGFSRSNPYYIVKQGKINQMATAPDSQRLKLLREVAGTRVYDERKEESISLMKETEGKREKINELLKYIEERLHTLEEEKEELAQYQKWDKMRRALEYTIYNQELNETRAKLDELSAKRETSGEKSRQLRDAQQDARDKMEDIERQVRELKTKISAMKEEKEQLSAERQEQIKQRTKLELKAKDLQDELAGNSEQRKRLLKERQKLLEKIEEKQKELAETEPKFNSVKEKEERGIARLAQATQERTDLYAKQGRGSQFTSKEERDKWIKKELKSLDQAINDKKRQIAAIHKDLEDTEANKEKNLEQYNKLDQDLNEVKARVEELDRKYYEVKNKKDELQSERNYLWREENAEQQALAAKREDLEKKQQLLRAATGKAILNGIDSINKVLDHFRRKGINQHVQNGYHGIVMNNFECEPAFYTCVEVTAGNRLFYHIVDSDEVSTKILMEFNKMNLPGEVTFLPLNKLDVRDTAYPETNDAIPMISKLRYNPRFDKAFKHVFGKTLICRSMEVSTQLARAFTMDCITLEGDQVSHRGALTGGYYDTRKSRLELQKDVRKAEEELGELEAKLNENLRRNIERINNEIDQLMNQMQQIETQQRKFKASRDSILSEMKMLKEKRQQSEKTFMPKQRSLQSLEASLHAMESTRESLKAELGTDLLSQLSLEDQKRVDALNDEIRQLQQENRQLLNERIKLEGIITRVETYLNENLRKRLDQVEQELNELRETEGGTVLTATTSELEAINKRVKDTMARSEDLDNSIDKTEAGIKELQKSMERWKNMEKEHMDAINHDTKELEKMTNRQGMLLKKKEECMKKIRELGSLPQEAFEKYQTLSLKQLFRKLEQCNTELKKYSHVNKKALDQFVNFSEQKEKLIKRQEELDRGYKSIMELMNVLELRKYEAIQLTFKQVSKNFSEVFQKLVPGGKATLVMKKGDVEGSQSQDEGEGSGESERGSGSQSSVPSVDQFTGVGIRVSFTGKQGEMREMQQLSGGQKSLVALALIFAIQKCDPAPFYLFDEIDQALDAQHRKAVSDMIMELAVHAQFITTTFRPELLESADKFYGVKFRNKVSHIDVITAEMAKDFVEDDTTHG
Sequence of UniProt Q8NBX0 (Q8NBX0 whole entry): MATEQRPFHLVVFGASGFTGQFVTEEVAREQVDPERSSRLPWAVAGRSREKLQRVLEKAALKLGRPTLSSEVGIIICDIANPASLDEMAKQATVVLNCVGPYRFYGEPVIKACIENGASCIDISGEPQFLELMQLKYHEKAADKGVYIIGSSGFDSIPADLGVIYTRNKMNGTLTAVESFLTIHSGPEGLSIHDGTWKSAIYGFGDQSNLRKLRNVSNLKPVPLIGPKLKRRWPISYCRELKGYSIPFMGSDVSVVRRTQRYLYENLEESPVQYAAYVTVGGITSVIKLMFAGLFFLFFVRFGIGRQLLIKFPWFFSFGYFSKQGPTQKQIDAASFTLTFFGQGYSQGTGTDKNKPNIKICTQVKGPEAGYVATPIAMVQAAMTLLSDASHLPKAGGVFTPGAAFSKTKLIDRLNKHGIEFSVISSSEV
Sequence of UniProt Q6PID6 (Q6PID6 whole entry): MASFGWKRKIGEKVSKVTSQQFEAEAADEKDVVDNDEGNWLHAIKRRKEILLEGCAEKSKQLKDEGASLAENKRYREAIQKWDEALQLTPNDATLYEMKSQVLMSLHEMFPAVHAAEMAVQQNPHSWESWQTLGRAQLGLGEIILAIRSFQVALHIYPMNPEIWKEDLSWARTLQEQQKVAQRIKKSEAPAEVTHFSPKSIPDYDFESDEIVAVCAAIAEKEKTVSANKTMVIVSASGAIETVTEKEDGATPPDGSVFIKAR

Regarding “SARNP (effect direction: destabilized) (UniProt P82979)”, the pEC50 came out at 3.18.

With “SARS2 (effect direction: stabilized) (UniProt Q9NP81)”, the pEC50 amounted to 3.43.

As to “SCCPDH (effect direction: stabilized) (UniProt Q8NBX0)”, the pEC50 worked out at 3.12.

On to “SCPEP1 (effect direction: stabilized) (UniProt Q9HB40)”, for which the pEC50 was found to be 3.37.

Consider “SDAD1 (effect direction: destabilized) (UniProt Q9NVU7)”, for which the pEC50 is less than 2.7.

In the case of “SF3A1 (effect direction: stabilized) (UniProt Q15459)”, the pEC50 turned out to be 2.79.

In the case of “SF3A3 (effect direction: stabilized) (UniProt Q12874)”, the pEC50 was less than 2.7.

For the target “SF3B3 (effect direction: stabilized) (UniProt Q15393)”, the pEC50 is less than 2.7.

Turning to “SFXN1 (effect direction: stabilized) (UniProt Q9H9B4)”, the pEC50 stood at 2.77.

With “SH2D1A (effect direction: stabilized) (UniProt O60880)”, the pEC50 is less than 2.7.

Regarding “SHKBP1 (effect direction: stabilized) (UniProt Q8TBC3)”, the pEC50 came out at 2.83.

For “SHPK (effect direction: stabilized) (UniProt Q9UHJ6)”, the pEC50 was found to be 2.83.

For “SKIV2L (effect direction: stabilized) (UniProt Q15477)”, the pEC50 worked out at 2.92.

“SLBP (effect direction: stabilized) (UniProt Q14493)”: the pEC50 was 3.47.

As for “SLC12A2 (effect direction: stabilized) (UniProt P55011)”, the pEC50 was determined as 3.44.

For “SLC12A9 (effect direction: stabilized) (UniProt Q9BXP2)”, the pEC50 came out at 3.94.

As for “SLC27A4 (effect direction: stabilized) (UniProt Q6P1M0)”, the pEC50 is 3.05.

Consider “SMARCA5 (effect direction: stabilized) (UniProt O60264)”, for which the pEC50 was determined as 4.03.

For “SMARCAD1 (effect direction: stabilized) (UniProt Q9H4L7)”, the pEC50 turned out to be 3.94.

Take “SMARCC1 (effect direction: stabilized) (UniProt Q92922)”: the pEC50 amounted to 3.43.

Take “SMC1A (effect direction: stabilized) (UniProt Q14683)”: the pEC50 turned out to be 3.41.

For the target “SMC2 (effect direction: stabilized) (UniProt O95347)”, the negative logarithm of the EC50 (pEC50) worked out at 3.49.

As for “SMC3 (effect direction: stabilized) (UniProt Q9UQE7)”, the pEC50 came out at 3.41.

With “SMC4 (effect direction: stabilized) (UniProt Q9NTJ3)”, the negative-log EC50 (pEC50) was 3.54.

As for “SMG6 (effect direction: stabilized) (UniProt Q86US8)”, the pEC50 is 3.49.

For the target “SND1 (effect direction: stabilized) (UniProt Q7KZF4)”, the negative logarithm of the EC50 (pEC50) stood at 3.22.

Regarding “SNRNP27 (effect direction: stabilized) (UniProt Q8WVK2)”, the pEC50 amounted to 3.64.

As to “SNRPA1 (effect direction: stabilized) (UniProt P09661)”, the pEC50 is less than 2.7.

With “SNRPB (effect direction: destabilized) (UniProt P14678)”, the pEC50 is less than 2.7.

In the case of “SNX1 (effect direction: stabilized) (UniProt Q13596)”, the pEC50 is less than 2.7.

In the case of “SNX2 (effect direction: stabilized) (UniProt O60749)”, the pEC50 was less than 2.7.

For the target “SNX5 (effect direction: stabilized) (UniProt Q9Y5X3)”, the pEC50 is less than 2.7.

For the target “SNX6 (effect direction: stabilized) (UniProt Q9UNH7)”, the pEC50 was less than 2.7.

Regarding “SPAST (effect direction: stabilized) (UniProt Q9UBP0)”, the negative-log EC50 (pEC50) amounted to 3.34.

For “SPATA5 (effect direction: stabilized) (UniProt Q8NB90)”, the pEC50 amounted to 2.96.

In the case of “SPG7 (effect direction: stabilized) (UniProt Q9UQ90)”, the pEC50 came out at 4.48.

Take “SPN (effect direction: destabilized) (UniProt P16150)”: the pEC50 was determined as 3.88.

With “SPTBN1 (effect direction: stabilized) (UniProt Q01082)”, the pEC50 is less than 2.7.

Take “SRC (effect direction: stabilized) (UniProt P12931)”: the pEC50 came to 3.37.

As for “SRFBP1 (effect direction: destabilized) (UniProt Q8NEF9)”, the pEC50 was 2.86.

Turning to “SRPK1 (effect direction: stabilized) (UniProt Q96SB4)”, the pEC50 was 3.64.

On to “SRPRB (effect direction: stabilized) (UniProt Q9Y5M8)”, for which the pEC50 is 3.22.

As for “SRRM2 (effect direction: stabilized) (UniProt Q9UQ35)”, the pEC50 was less than 2.7.

Take “SSB (effect direction: stabilized) (UniProt P05455)”: the pEC50 is less than 2.7.

With “ST13 (effect direction: stabilized) (UniProt P50502)”, the pEC50 worked out at 3.1.

“STAG2 (effect direction: stabilized) (UniProt Q8N3U4)”: the pEC50 worked out at 4.09.

With “STXBP2 (effect direction: stabilized) (UniProt Q15833)”, the pEC50 was less than 2.7.

Take “SUB1 (effect direction: destabilized) (UniProt P53999)”: the pEC50 turned out to be 3.37.

Turning to “SUPV3L1 (effect direction: stabilized) (UniProt Q8IYB8)”, the pEC50 worked out at 3.12.

With “SWAP70 (effect direction: stabilized) (UniProt Q9UH65)”, the pEC50 is less than 2.7.

For “TARDBP (effect direction: stabilized) (UniProt Q13148)”, the pEC50 turned out to be 3.21.

In the case of “TBCB (effect direction: stabilized) (UniProt Q99426)”, the pEC50 is less than 2.7.

For “TBP (effect direction: destabilized) (UniProt P20226)”, the pEC50 was 3.12.

On to “TCP1 (effect direction: stabilized) (UniProt P17987)”, for which the pEC50 was 4.76.

In the case of “THOC1 (effect direction: stabilized) (UniProt Q96FV9)”, the pEC50 was less than 2.7.

As to “THUMPD3 (effect direction: stabilized) (UniProt Q9BV44)”, the pEC50 is 3.1.

For the target “TLK2 (effect direction: stabilized) (UniProt Q86UE8)”, the pEC50 turned out to be 3.07.

As to “TLN1 (effect direction: stabilized) (UniProt Q9Y490)”, the pEC50 is less than 2.7.

As for “TMEM33 (effect direction: stabilized) (UniProt P57088)”, the pEC50 stood at 3.04.

As to “TMEM173 (effect direction: stabilized) (UniProt Q86WV6)”, the pEC50 is 3.26.

Take “TOR1A (effect direction: stabilized) (UniProt O14656)”: the pEC50 was found to be 4.09.

As for “TPP1 (effect direction: stabilized) (UniProt O14773)”, the pEC50 amounted to 3.26.

As to “TRAP1 (effect direction: stabilized) (UniProt Q12931)”, the pEC50 came to 3.33.

On to “TRIM21 (effect direction: stabilized) (UniProt P19474)”, for which the pEC50 was 2.77.

Consider “TRIM28 (effect direction: stabilized) (UniProt Q13263)”, for which the pEC50 was less than 2.7.

On to “TRMU (effect direction: stabilized) (UniProt O75648)”, for which the pEC50 came out at 3.31.

On to “TSEN2 (effect direction: stabilized) (UniProt Q8NCE0)”, for which the pEC50 worked out at 3.12.

With “TSEN34 (effect direction: stabilized) (UniProt Q9BSV6)”, the pEC50 was less than 2.7.

Turning to “TSR1 (effect direction: destabilized) (UniProt Q2NL82)”, the pEC50 was found to be 3.51.

Regarding “TSTA3 (effect direction: stabilized) (UniProt Q13630)”, the pEC50 was 2.73.

On to “TTC33 (effect direction: stabilized) (UniProt Q6PID6)”, for which the pEC50 turned out to be 2.91.

With “TTC37 (effect direction: stabilized) (UniProt Q6PGP7)”, the pEC50 amounted to 3.19.

Consider “TTF2 (effect direction: stabilized) (UniProt Q9UNY4)”, for which the pEC50 came to 3.17.

With “TUBA1C (effect direction: stabilized) (UniProt Q9BQE3)”, the pEC50 came to 3.5.

For “TUBB3 (effect direction: stabilized) (UniProt Q13509)”, the pEC50 was found to be 3.69.

In the case of “TUT1 (effect direction: stabilized) (UniProt Q9H6E5)”, the pEC50 was 2.93.

In the case of “UBA2 (effect direction: stabilized) (UniProt Q9UBT2)”, the pEC50 was less than 2.7.

Take “UBA3 (effect direction: stabilized) (UniProt Q8TBC4)”: the pEC50 came to 3.86.

As for “UBA5 (effect direction: stabilized) (UniProt Q9GZZ9)”, the pEC50 came out at 3.81.

As for “UBE2O (effect direction: stabilized) (UniProt Q9C0C9)”, the pEC50 is less than 2.7.

In the case of “UBE3A (effect direction: stabilized) (UniProt Q05086)”, the pEC50 was less than 2.7.

Source of the values: the supplement of paper PMC6411743.
